Measured values: patent US9556183B2, “Substituted pyrazolylpyrazole derivative and use of same as herbicide” (KYOYU AGRI CO., LTD., priority 2013, dated 2017)

Key:
Format in all cases: in vivo
Amaranthus retroflexus [1] = experiment: Farming soil treatment test; settings: soil surface spray prior to weed growth, 30 days
Description: (§1) Evaluation of herbicidal efficacy was carried out by comparing growth inhibition rate (%) with an untreated group, while evaluation of phytotoxicity was carried out by comparing growth inhibition rate (%) with the state of a complete eradication group, and were evaluated at 11 levels indicated below. [table] Field soil was filled into a 1/6000 are pot followed by seeding with Digitaria ciliaris, Chenopodium album and Amaranthus retroflexus and covering with soil. Wettable powder of compounds of formula (I) shown in Table 1 prepared in compliance with the preparation examples were diluted with water to the prescribed amount of chemical and uniformly sprayed onto each soil surface layer using 10 liters of sprayed water per are prior to weed growth following seeding. After treating for 30 days in a glass greenhouse at an average atmospheric temperature of 30° C., the herbicidal efficacy thereof was investigated. Evaluation of herbicidal efficacy was carried out in the same manner as the above-mentioned Test Example 1.

Digitaria ciliaris [2] = experiment: Farming soil treatment test; settings: soil surface spray prior to weed growth, 30 days
Description: as §1

Chenopodium album [3] = experiment: Farming soil treatment test; settings: soil surface spray prior to weed growth, 30 days
Description: as §1

Rice plants = experiment: Paddy herbicidal activity test, phytotoxicity to transplanted rice; settings: rice transplanted at 2.0 leaf stage, 30 days
Description: (§2) Rice paddy soil was filled into a 1/10000 are pot followed by the addition of suitable amounts of water and chemical fertilizer, kneading, seeding with Echinochloa crus-galli, Monochoria vaginalis and Scirpus juncoides and maintaining in an irrigated state at a water depth of 3 cm. Wettable powder of Target Compound (I) shown in Table 1 prepared in compliance with the preparation examples were diluted with a suitable amount of water, rice plants in the 2.0 leaf stage were transplanted during 3.5 leaf stage of Echinochloa crus-galli, and treated by dropping in chemical in the prescribed amount per are using a pipette. After treating for 30 days in a glass greenhouse at an average atmospheric temperature of 30° C., the herbicidal efficacy thereof was investigated. Evaluation of herbicidal efficacy was carried out by comparing growth inhibition rate (%) with an untreated group, while evaluation of phytotoxicity was carried out by comparing growth inhibition rate (%) with the state of a complete eradication group, and were evaluated at 11 levels indicated below. [table]

Amaranthus retroflexus [4] = experiment: Weed foliar treatment test; settings: foliar spray, 3 weeks
Description: (§3) Evaluation of herbicidal efficacy was carried out by comparing growth inhibition rate (%) with an untreated group, while evaluation of phytotoxicity was carried out by comparing growth inhibition rate (%) with the state of a complete eradication group, and were evaluated at 11 levels indicated below. [table] Soil was filled into a 1/6000 are pot followed by seeding with Digitaria ciliaris, Chenopodium album and Amaranthus retroflexus, covering with soil, and cultivating in a glass greenhouse at an average atmospheric temperature of 25° C. Wettable powder of Target Compound (I) shown in Table 1 prepared in compliance with the preparation examples were diluted with water to the prescribed amount of chemical and uniformly sprayed onto the weeds using 15 liters of sprayed water per are when Digitaria ciliaris had grown to the 1.0 to 2.0 leaf stage. After treating for 3 weeks in a glass greenhouse at an average atmospheric temperature of 25° C., the herbicidal efficacy thereof was investigated, Evaluation of herbicidal efficacy was carried out in the same manner as the above-mentioned Test Example 1.

Digitaria ciliaris [5] = experiment: Weed foliar treatment test; settings: foliar spray at 1.0 to 2.0 leaf stage of Digitaria ciliaris, 3 weeks
Description: as §3

Chenopodium album [6] = experiment: Weed foliar treatment test; settings: foliar spray, 3 weeks
Description: as §3

Scirpus juncoides = experiment: Paddy herbicidal activity test; settings: irrigated paddy pot, 30 days
Description: as §2

Monochoria vaginalis = experiment: Paddy herbicidal activity test; settings: irrigated paddy pot, 30 days
Description: as §2

Echinochloa crus-galli = experiment: Paddy herbicidal activity test; settings: irrigated paddy pot, treated at 3.5 leaf stage of Echinochloa crus-galli, 30 days
Description: as §2

Row | Compound | herbicidal efficacy (growth inhibition rate level) Amaranthus retroflexus (Amaranthus retroflexus [1]; 5g a.i./10a) | herbicidal efficacy (growth inhibition rate level) Amaranthus retroflexus (Amaranthus retroflexus [1]; 10g a.i./10a) | herbicidal efficacy (growth inhibition rate level) Digitaria ciliaris (Digitaria ciliaris [2]; 5g a.i./10a) | herbicidal efficacy (growth inhibition rate level) Digitaria ciliaris (Digitaria ciliaris [2]; 10g a.i./10a) | herbicidal efficacy (growth inhibition rate level) Chenopodium album (Chenopodium album [3]; 5g a.i./10a) | herbicidal efficacy (growth inhibition rate level) Chenopodium album (Chenopodium album [3]; 10g a.i./10a) | phytotoxicity (growth inhibition rate level) Rice plants (Rice plants; 1g a.i./10a) | phytotoxicity (growth inhibition rate level) Rice plants (Rice plants; 5g a.i./10a) | herbicidal efficacy (growth inhibition rate level) Amaranthus retroflexus (Amaranthus retroflexus [4]; 5g a.i./10a) | herbicidal efficacy (growth inhibition rate level) Amaranthus retroflexus (Amaranthus retroflexus [4]; 10g a.i./10a) | herbicidal efficacy (growth inhibition rate level) Digitaria ciliaris (Digitaria ciliaris [5]; 5g a.i./10a) | herbicidal efficacy (growth inhibition rate level) Digitaria ciliaris (Digitaria ciliaris [5]; 10g a.i./10a) | herbicidal efficacy (growth inhibition rate level) Chenopodium album (Chenopodium album [6]; 5g a.i./10a) | herbicidal efficacy (growth inhibition rate level) Chenopodium album (Chenopodium album [6]; 10g a.i./10a) | herbicidal efficacy (growth inhibition rate level) Scirpus juncoides (Scirpus juncoides; 1g a.i./10a) | herbicidal efficacy (growth inhibition rate level) Scirpus juncoides (Scirpus juncoides; 5g a.i./10a) | herbicidal efficacy (growth inhibition rate level) Monochoria vaginalis (Monochoria vaginalis; 1g a.i./10a) | herbicidal efficacy (growth inhibition rate level) Monochoria vaginalis (Monochoria vaginalis; 5g a.i./10a) | herbicidal efficacy (growth inhibition rate level) Echinochloa crus-galli (Echinochloa crus-galli; 1g a.i./10a) | herbicidal efficacy (growth inhibition rate level) Echinochloa crus-galli (Echinochloa crus-galli; 5g a.i./10a)
1 | CC1CC1CNc1c(C#N)cnn1-c1nn2c(c1Cl)CCCC2 (stereo not shown) [Compound 12] | 10 (10: 100%) | 10 (10: 100%) | 10 (10: 100%) | 10 (10: 100%) | 10 (10: 100%) | 10 (10: 100%) | 0 (0 (exponent): 0% to less than 10% (growth inhibition rate)) | 1 (1: 10% to less than 20%) | 10 (10: 100%) | 10 (10: 100%) | 10 (10: 100%) | 10 (10: 100%) | 10 (10: 100%) | 10 (10: 100%) | 9 (9: 90% to less than 100%) | 9 (9: 90% to less than 100%) | 8 (8: 80% to less than 90%) | 9 (9: 90% to less than 100%) | 9 (9: 90% to less than 100%) | 10 (10: 100%)
2 | N#Cc1cnn(-c2nn3c(c2Br)CCCC3)c1NCC1CC1 [Compound 147] | 10 (10: 100%) | 10 (10: 100%) | 10 (10: 100%) | 10 (10: 100%) | 10 (10: 100%) | 10 (10: 100%) | 0 (0 (exponent): 0% to less than 10% (growth inhibition rate)) | 0 (0 (exponent): 0% to less than 10% (growth inhibition rate)) | 10 (10: 100%) | 10 (10: 100%) | 10 (10: 100%) | 10 (10: 100%) | 10 (10: 100%) | 10 (10: 100%) | 7 (7: 70% to less than 80%) | 9 (9: 90% to less than 100%) | 7 (7: 70% to less than 80%) | 8 (8: 80% to less than 90%) | 8 (8: 80% to less than 90%) | 9 (9: 90% to less than 100%)
3 | N#Cc1cnn(-c2nn3c(c2Br)CCCC3)c1N(CC1CC1)C(=O)C(F)(F)F [Compound 148] | 10 (10: 100%) | 10 (10: 100%) | 10 (10: 100%) | 10 (10: 100%) | 10 (10: 100%) | 10 (10: 100%) | 0 (0 (exponent): 0% to less than 10% (growth inhibition rate)) | 0 (0 (exponent): 0% to less than 10% (growth inhibition rate)) | 10 (10: 100%) | 10 (10: 100%) | 10 (10: 100%) | 10 (10: 100%) | 10 (10: 100%) | 10 (10: 100%) | 7 (7: 70% to less than 80%) | 9 (9: 90% to less than 100%) | 7 (7: 70% to less than 80%) | 9 (9: 90% to less than 100%) | 8 (8: 80% to less than 90%) | 10 (10: 100%)
4 | N#Cc1cnn(-c2nn3c(c2Cl)CCCC3)c1NCC1CC1(F)F (stereo not shown) [Compound 185] | 10 (10: 100%) | 10 (10: 100%) | 10 (10: 100%) | 10 (10: 100%) | 10 (10: 100%) | 10 (10: 100%) | 0 (0 (exponent): 0% to less than 10% (growth inhibition rate)) | 1 (1: 10% to less than 20%) | 10 (10: 100%) | 10 (10: 100%) | 10 (10: 100%) | 10 (10: 100%) | 10 (10: 100%) | 10 (10: 100%) | 10 (10: 100%) | 10 (10: 100%) | 9 (9: 90% to less than 100%) | 9 (9: 90% to less than 100%) | 10 (10: 100%) | 10 (10: 100%)
5 | N#Cc1cnn(-c2nn3c(c2Cl)CCCC3)c1N(CC1CC1(F)F)C(=O)C(F)(F)F (stereo not shown) [Compound 186] | 10 (10: 100%) | 10 (10: 100%) | 10 (10: 100%) | 10 (10: 100%) | 10 (10: 100%) | 10 (10: 100%) | 0 (0 (exponent): 0% to less than 10% (growth inhibition rate)) | 1 (1: 10% to less than 20%) | 10 (10: 100%) | 10 (10: 100%) | 10 (10: 100%) | 10 (10: 100%) | 10 (10: 100%) | 10 (10: 100%) | 9 (9: 90% to less than 100%) | 10 (10: 100%) | 9 (9: 90% to less than 100%) | 9 (9: 90% to less than 100%) | 10 (10: 100%) | 10 (10: 100%)
